Experimental data from patent US5770618A (Nastech Pharmaceutical Company, Inc., priority 1996, dated 1998).
Counter-ions that a name gives are not always drawn.

Experiments:
physchem [1] = experiment: physchem
Source text: The final pH values of the solutions ranged from about 4 to about 6.

[2] = cited from earlier work
physchem [3] = experiment: physchem; remark: listed apart in the source

Compound: CN1CCC[C@@H]1CCO[C@](C)(c1ccccc1)c1ccc(Cl)cc1 [Clemastine Fumarate, clemastine fumarate]
- solubility (physchem [1]; acetate buffer 0.5 m, pH 4.1): 0.6 mg/mL
- solubility (physchem [1]; acetate buffer 0.5 m, pH 5): 3.8 mg/mL
- solubility (physchem [1]; acetate buffer 0.5 m, pH 5.3): 11.2 mg/mL
- solubility (physchem [1]; acetate buffer 0.5 m, pH 5.5): 18.2 mg/mL
- solubility (physchem [1]; acetate buffer 0.5 m, pH 5.7): 24 mg/mL
- solubility (physchem [1]; citrate buffer 0.5 m, pH 4.1): 2.7 mg/mL
- solubility (physchem [1]; citrate buffer 0.5 m, pH 4.9): 3.3 mg/mL
- solubility (physchem [1]; citrate buffer 0.5 m, pH 5.3): 31.6 mg/mL
- solubility (physchem [1]; citrate buffer 0.5 m, pH 5.6): 46.3 mg/mL
- solubility (physchem [1]; citrate buffer 0.5 m, pH 5.8): 47 mg/mL
- solubility in alcohol ([2]; Remington, 19th edition, 1995): only slightly soluble
- solubility in water, chloroform or ether ([2]; Remington, 19th edition, 1995): very slightly soluble
- solubility at 24 h (physchem [3]; ammonium acetate 0.1 m, pH 5.4, Clemastine Fumarate Solubility): 6.1 mg/mL
- solubility at 24 h (physchem [3]; ammonium acetate 0.25 m, pH 5.5, Clemastine Fumarate Solubility): 12.2 mg/mL
- solubility at 24 h (physchem [3]; ammonium acetate 0.5 m, pH 5.6, Clemastine Fumarate Solubility): 25.7 mg/mL
- solubility at 24 h (physchem [3]; ammonium acetate 1.0 m, pH 5.7, Clemastine Fumarate Solubility): 43.3 mg/mL
- solubility at 24 h (physchem [3]; sodium acetate 0.1 m, pH 5.4, Clemastine Fumarate Solubility): 6.6 mg/mL
- solubility at 24 h (physchem [3]; sodium acetate 0.25 m, pH 5.5, Clemastine Fumarate Solubility): 14.3 mg/mL
- solubility at 24 h (physchem [3]; sodium acetate 0.5 m, pH 5.6, Clemastine Fumarate Solubility): 24 mg/mL
- solubility at 24 h (physchem [3]; sodium acetate 1.0 m, pH 5.7, Clemastine Fumarate Solubility): 41.2 mg/mL
- solubility at 24 h (physchem [3]; sodium ascorbate 0.1 m, pH 5.2, Clemastine Fumarate Solubility): 5.5 mg/mL
- solubility at 24 h (physchem [3]; sodium ascorbate 0.25 m, pH 5.2, Clemastine Fumarate Solubility): 7.5 mg/mL
- solubility at 24 h (physchem [3]; sodium ascorbate 0.5 m, pH 5.2, Clemastine Fumarate Solubility): 16.7 mg/mL
- solubility at 24 h (physchem [3]; sodium ascorbate 1.0 m, pH 5.3, Clemastine Fumarate Solubility): 30.6 mg/mL
- solubility at 24 h (physchem [3]; sodium citrate 0.15 m, pH 5.6, Clemastine Fumarate Solubility): 28.6 mg/mL
- solubility at 24 h (physchem [3]; sodium citrate 0.25 m, pH 5.7, Clemastine Fumarate Solubility): 40 mg/mL
- solubility at 24 h (physchem [3]; sodium fumarate 0.25 m, pH 6.2, Clemastine Fumarate Solubility): 44.2 mg/mL
- solubility at 24 h (physchem [3]; sodium fumarate 0.5 m, pH 6.4, Clemastine Fumarate Solubility): 82.1 mg/mL
- solubility at 24 h (physchem [3]; sodium glycinate 0.25 m, pH 9.1, Clemastine Fumarate Solubility): 15.5 mg/mL
- solubility at 24 h (physchem [3]; sodium glycinate 0.5 m, pH 9.4, Clemastine Fumarate Solubility): 26.6 mg/mL
- solubility at 24 h (physchem [3]; sodium malate 0.1 m, Clemastine Fumarate Solubility): 13.8 mg/mL
- solubility at 24 h (physchem [3]; sodium malate 0.25 m, pH 6, Clemastine Fumarate Solubility): 16.9 mg/mL
- solubility at 24 h (physchem [3]; sodium malate 0.5 m, pH 5.5, Clemastine Fumarate Solubility): 25.5 mg/mL
- solubility at 24 h (physchem [3]; sodium malate 1.0 m, pH 5.7, Clemastine Fumarate Solubility): 29.3 mg/mL
- solubility at 24 h (physchem [3]; sodium maleate 0.25 m, pH 6, Clemastine Fumarate Solubility): 41.4 mg/mL
- solubility at 24 h (physchem [3]; sodium maleate 0.5 m, pH 6.5, Clemastine Fumarate Solubility): 65 mg/mL
- solubility at 24 h (physchem [3]; sodium maleate 1.0 m, pH 6.8, Clemastine Fumarate Solubility): 153 mg/mL
- solubility at 24 h (physchem [3]; sodium succinate 0.25 m, pH 6.1, Clemastine Fumarate Solubility): 15.4 mg/mL
- solubility at 24 h (physchem [3]; sodium succinate 0.5 m, pH 6.3, Clemastine Fumarate Solubility): 18.2 mg/mL
- solubility at 24 h (physchem [3]; sodium tartarate 0.5 m, pH 5.1, Clemastine Fumarate Solubility): 13.3 mg/mL

Compound: CN1CCC[C@@H]1CCO[C@](C)(c1ccccc1)c1ccc(Cl)cc1 [clemastine]
- solubility in pharmaceutically acceptable solvents ([2]; as is well known in the art, clemastine and its salts): sparingly soluble
